Test results reported in patent US20250155433A1, “FLUORESCENT SENSORS FOR DETECTION OF SIDEROPHORES AND OTHER MOLECULES PRODUCED BY BACTERIAL PATHOGENS” (Kansas State University Research Foundation, priority 2021, published 2025).
Read-outs that look alike come from different tables or passages of the source. *1 amine or outer side, *2 acyl side, *3 side chain or, on linkers, in order; H or OH if unused. Where a SMILES comes first, the peptide text is derived from it. Bridges are numbered along the chain shown (N, C = ends). [ ]: non-standard residue; d: D form. X1 = O=C([C@@H]1CCN=C2C(N[*:1])=Cc3cc(O)c(O)cc3N21)[*:2]; Orn(N5-OH,N5-Ac) = CC(=O)N(O)CCC[C@H](N)C(=O)O; X2 = O=CN(O)CCC[C@H](N[*:1])C(=O)[*:2]; Suc = O=C(CCC(=O)[*:2])[*:1]

Key:
CRE/ESKAPE pathogens = test: Decoy sensor measurements of metal complex uptake by bacteria; format: cell-based; conditions: decoy sensors in TonB-deficient E. coli, 37° C., strains grown in iron-deficient MOPS
Text: Fluorescence spectroscopic uptake measurements. We employed FD sensors to monitor TonB-dependent uptake of various siderophores by bacterial pathogens. In the fluorescence spectroscopic uptake studies E. coli OKN13 (ΔtonB, ΔfepA) or OKN1359 (ΔtonB, Δfiu, ΔfepA, Δcir) were host strains for pITS23 derivatives carrying single Cys mutants of an LGP of interest. The FLGP were decoy sensors that monitored ferric siderophore uptake by test strains. For each assay we used 10^7 sensor cells (e.g., OKN13/pFepA-FM (53)) in a 2 mL quartz cuvette containing PBS+0.2% glucose at 37° C. After recording fluorescence intensity for 100 seconds, we added an iron complex (e.g., FeEnt) at a final concentration of ˜10 nM. After incubating the sample for 100 seconds, during which time fluorescence was quenched (e.g., ˜60% quenching for EcoFepA_A698C-FM), we added 0.5-2×10^7 cells of the test strain (E. coli MG1655, K. pneumoniae Kp52.145, A. baumannii 17978, P. aeruginosa PA01, E. cloacae) and monitored the time-course of fluorescence emissions at 520 nm for 15-40 minutes, with stirring.

EcoFhuA = EcoFhuA (Escherichia coli, UniProt P06971); test: Fluorescence quenching binding to EcoFhuA-FM sensor; conditions: read-out: Affinity (KD) of sensor EcoFhuA; ferric complexes; Cys residue D396C, FM-labeled; NB = no binding
Experimental: (§1) Fluorescence modifications. For modifications with maleimide fluorophores, we inoculated E. coli strains OKN3, OKN13, OKN359 or OKN1359, harboring plasmids that encoded a Cys mutant LGP, from frozen stocks into LB, grew them overnight and sub-cultured at 1% into iron-deficient MOPS minimal media, with shaking (200 rpm) at 37° C. for 10-12 h, until late exponential phase. After collecting the cells by centrifugation at 7500×g for 15 min, and washing with 50 mM NaHPO4, pH 6.7, we labeled the Cys-mutant LGP with 5 μM FM in 50 mM NaHPO4, pH 6.7 for 15 min at 37° C. FM. We terminated the labeling reactions with 100 μM β-mercaptoethanol. After collecting the fluoresceinated cells by centrifugation at 7500×g for 15 min, and washing with 50 mM NaHPO4, pH 6.7, we re-suspended them in PBS plus 0.2% glucose. We either immediately used the labeled cells in spectroscopic experiments, or rested them on ice (up to 24 h), or added glycerol to 15% and stored them (indefinitely) as 1 mL aliquots at −70° C. In the latter case, after thawing the labeled cells we pelleted them by centrifugation in a microfuge, washed them once with and re-suspended them in PBS containing 0.2% glucose. Lastly, for evaluation of protein expression or the extent of FM-labeling we solubilized aliquots of the cell suspensions with sample buffer, and subjected them to SDS-PAGE. After electrophoresis, we first visualized the fluorescence labeling on a Typhoon 8600 Biomolecular Scanner (GE/Amersham), and then stained the gels with Coomassie blue R (153).
(§2) Fluorescence spectroscopic binding determinations. We observed fluorophore-labeled cells in an SLM AMINCO 8100 fluorescence spectrometer, upgraded with an OLIS operating system and software (OLIS SpectralWorks, OLIS Inc., Bogart, GA), to control its shutters, polarizers and data collection. We also utilized an OLIS Clarity fluorescence spectrometer for fluorescence assays. For binding determinations we deposited 2.5×10^7 labeled cells in a quartz cuvette (final volume, 2 mL) with stirring at 37° C., measured the initial fluorescence (F0), and then added increasing concentrations of an iron complex while monitoring the quenching of fluorescence emissions (F) at 520 nm. We performed each measurement in triplicate and calculated the mean value of F/F0 at each ligand concentration. We plotted 1−F/F0 vs [ligand] and analyzed the data by the 1-site binding model of Grafit 6.0.12 (Erithacus Ltd. West Sussex, UK), that fits data to a single site saturation curve, where the amount of ligand bound is plotted as a function of the amount free: […]
(§3) Table 1 lists KD values from analysis of fluorescence quenching with ferric or apo (parenthetic values) siderophores or porphyrins. […]

EcoIutA = target: T1, EcoIutA (Escherichia coli, UniProt P14542, T573C); test: Fluorescence quenching binding to EcoIutA-FM sensor; conditions: for Binding by IutA: other ferric hydroxamates
T1 construct: expressed in transfected cells; host or cells: E. coli OKN3/OKN13/OKN359/OKN1359 carrying a pITS23 derivative
Experimental: as §1, §2, §3

[1] = target: T2, HsaSCN (human siderocalin) (Homo sapiens, UniProt P80188, Q148C); test: Fluorescence quenching binding to purified HsaSCN-FM sensor
T2 construct: adds a 6H-tag at either the N- or C-termini of the mature proteins; 6-His (N); made in house; host or cells: E. coli BL21 (pET28), IPTG-induced; purified on Talon Superflow

KpnFyuA = test: Fluorescence quenching binding to KpnFyuA-FM sensor; set-up: species or system Klebsiella pneumoniae
Experimental: as §1, with “In the latter case, after thawing the labeled cells we pelleted them by centrifugation in a microfuge, washed them once with and re-suspended them in PBS containing 0.2% glucose. Lastly, for evaluation of protein expression or the extent of FM-labeling we solubilized aliquots of the cell suspensions with sample buffer, and subjected them to SDS-PAGE.” left out
as §2, with “concentration.” for “concentration. We plotted 1−F/F0 vs [ligand] and analyzed the data by the 1-site binding model of Grafit 6.0.12 (Erithacus Ltd. West Sussex, UK), that fits data to a single site saturation curve, where the amount of ligand bound is plotted as a function of the amount free:”
as §3

AbaBauA = AbaBauA (Acinetobacter baumannii, UniProt Q76HJ9, S407C); test: Fluorescence quenching binding to AbaBauA-FM sensor; conditions: read-out: Affinity (KD) of sensor AbaBauA; ferric complexes; Cys residue S385C, FM-labeled; NB = no binding
Experimental: (§4) Fluorescence modifications. For modifications with maleimide fluorophores, we inoculated E. coli strains OKN3, OKN13, OKN359 or OKN1359, harboring plasmids that encoded a Cys mutant LGP, from frozen stocks into LB, grew them overnight and sub-cultured at 1% into iron-deficient MOPS minimal media, with shaking (200 rpm) at 37° C. for 10-12 h, until late exponential phase. After collecting the cells by centrifugation at 7500×g for 15 min, and washing with 50 mM NaHPO4, pH 6.7, we labeled the Cys-mutant LGP with 5 μM FM in 50 mM NaHPO4, pH 6.7 for 15 min at 37° C. FM. We terminated the labeling reactions with 100 μM β-mercaptoethanol. […] After electrophoresis, we first visualized the fluorescence labeling on a Typhoon 8600 Biomolecular Scanner (GE/Amersham), and then stained the gels with Coomassie blue R (153).
(§5) Fluorescence spectroscopic binding determinations. We observed fluorophore-labeled cells in an SLM AMINCO 8100 fluorescence spectrometer, upgraded with an OLIS operating system and software (OLIS SpectralWorks, OLIS Inc., Bogart, GA), to control its shutters, polarizers and data collection. We also utilized an OLIS Clarity fluorescence spectrometer for fluorescence assays. […] We performed each measurement in triplicate and calculated the mean value of F/F0 at each ligand concentration. […]

EcoFiu = target: T3, EcoFiu (Escherichia coli, UniProt P75780, A694C); test: biochemical; format: binding
T3 construct: expressed in transfected cells; host or cells: E. coli OKN3/OKN13/OKN359/OKN1359 carrying a pITS23 derivative
Experimental: as §1
Fluorescence spectroscopic binding determinations. We observed fluorophore-labeled cells in an SLM AMINCO 8100 fluorescence spectrometer, upgraded with an OLIS operating system and software (OLIS SpectralWorks, OLIS Inc., Bogart, GA), to control its shutters, polarizers and data collection. We also utilized an OLIS Clarity fluorescence spectrometer for fluorescence assays. For binding determinations we deposited 2.5×10^7 labeled cells in a quartz cuvette (final volume, 2 mL) with stirring at 37° C., measured the initial fluorescence (F0), and then added increasing concentrations of an iron complex while monitoring the quenching of fluorescence emissions (F) at 520 nm. We performed each measurement in triplicate and calculated the mean value of F/F0 at each ligand concentration. We plotted 1−F/F0 vs [ligand] and analyzed the data by the 1-site binding model of Grafit 6.0.12 (Erithacus Ltd. West Sussex, UK), that fits data to a single site saturation curve, where the amount of ligand bound is plotted as a function of the amount free:
These plots yielded KD values for each of the receptor-ligand interactions, with associated standard errors.
Table 1 lists KD values from analysis of fluorescence quenching with ferric or apo (parenthetic values) siderophores or porphyrins. For each determination, we measured the extent of fluorescence quenching of an FLGP, when exposed to sequentially increasing concentrations of the listed metal complexes, as plotted in FIGS. 2-4. We performed each experiment 2 or 3 times. The tabulated KD values are from single, representative experiments, in which we collected each data point in triplicate, plotted F/F0 vs [ligand] for each quenching titration, and fitted the curves to a single site binding model using Grafit 6.012 (Erithacus Ltd, […], UK).

KpnFepA2380 = test: Fluorescence quenching binding to KpnFepA2380-FM sensor; set-up: species or system Klebsiella pneumoniae; conditions: ferric complexes; Cys residue T255C, FM-labeled; NB = no binding; read-out: Affinity (KD) of sensor KpnFepA 2380
Experimental: as §4, §5

PaeFpvA = target: T4, PaeFpvA (Pseudomonas aeruginosa, UniProt P48632, T660C); test: Fluorescence quenching binding to PaeFpvA-FM sensor; conditions: secondary ligands
T4 construct: expressed in transfected cells; host or cells: E. coli OKN3/OKN13/OKN359/OKN1359 carrying a pITS23 derivative
Experimental: as §4, §5

Row | Structure (SMILES) | Kd (EcoFhuA) [nM] | Binding by IutA (EcoIutA) | Kd ([1]; read-out: KD, HsaSCN-FM) [nM] | also measured
1 | C[C@@H](O)[C@@H]1NC(=O)[C@H](CCCN([O-])C=O)NC(=O)[C@@H](NC(=O)[C@H](CCCN([O-])C=O)NC(=O)[C@@H](CO)NC(=O)[C@H](CCCNC(=N)N)NC(=O)[C@@H](CO)NC(=O)[C@@H]2CCN=C3C(NC(=O)CCC(=O)O)=Cc4cc(O)c([O-])cc4N32)CCCCNC(=O)[C@H]([C@@H](C)O)NC1=O.[Fe+3] [FePvd] (Suc-[X1][dS]R[dS][X2]K[X2]TT; lactam 6-C) | – | – | – | TonB-dependent uptake by test strains (CRE/ESKAPE pathogens): exclusive transport of FePvd by P. aeruginosa
2 | CC(=O)N(O)CCCCCNC(=O)CCC(=O)N(O)CCCCCNC(=O)CCC(=O)N(O)CCCCCN.[Fe+3] [FxB] | 100000 | did not measurably bind | 180 | Kd ([1]; read-out: Affinity (KD) of sensor HsaSCN, ferric complexes and porphyrins, Cys residue Q128C, FM-labeled purified protein, NB = no binding): 175 nM; Kd (KpnFyuA; ferric complexes, Cys residue S631C, FM-labeled, NB = no binding, read-out: Affinity (KD) of sensor KpnFyuA): 277000 nM; Binding by KpnFyuA (KpnFyuA; secondary ligands): weakly bound
3 | CC(=O)N(O)CCC[C@@H]1NC(=O)CNC(=O)CNC(=O)CNC(=O)[C@H](CCCN(O)C(C)=O)NC(=O)[C@H](CCCN(O)C(C)=O)NC1=O.[Fe+3] [Fc, ferrichrome] (cyclo(GGG[Orn(N5-OH,N5-Ac)][Orn(N5-OH,N5-Ac)][Orn(N5-OH,N5-Ac)])) | 3 | did not measurably bind | 110 | –
4 | O=C([C@@H]1CSC(c2cccc(O)c2O)=N1)N(O)CCc1c[nH]cn1.[Fe+3] [FeAgn] | – | – | 160 | Kd (AbaBauA): 1100 nM
5 | CC(=O)N(O)CCCC[C@H](NC(=O)CC(O)(CC(=O)N[C@@H](CCCCN(O)C(C)=O)C(=O)O)C(=O)O)C(=O)O [Abn, aerobactin] | – | – | – | Kd (EcoIutA): 1400 nM
6 | O=C(O)c1cccc(O)c1O.[Fe+3] [FeDHB] | – | – | – | Binding by EcoFiu (EcoFiu): did not bind; Kd (KpnFepA2380): 22000 nM; Binding by PaeFpvA (PaeFpvA): weakly bound
7 | C/C(=C\C(=O)N(O)CCC[C@@H]1NC(=O)CNC(=O)[C@H](CO)NC(=O)[C@H](CO)NC(=O)[C@H](CCCN(O)C(=O)/C=C(\C)CC(=O)O)NC(=O)[C@H](CCCN(O)C(=O)/C=C(\C)CC(=O)O)NC1=O)CC(=O)O.[Fe+3] [FcA] | 60 | did not measurably bind | – | –
